Data as given in paper PMC6175296 (Clinical Pharmacology and Therapeutics, 2017).
Entries after “also recorded” stand apart in the source; their conditions may differ. Like-named read-outs stand apart in the source and are kept apart here. Blank lines part the entries; values can stand above or below the compound they belong to.

Tests used:
[1] = type: in vivo, humans
OATP1B1 = settings: read-out: OATP1B1 Ki; “Clopidogrel 25” model; published value; cited from earlier work
CYP2C8 [2] = target: T1, CYP2C8 (Homo sapiens, UniProt P10632); assay: In vivo CYP2C8 inhibition judged from montelukast pharmacokinetics; settings: montelukast as CYP2C8 probe substrate
T1 sequence (P10632 1-490): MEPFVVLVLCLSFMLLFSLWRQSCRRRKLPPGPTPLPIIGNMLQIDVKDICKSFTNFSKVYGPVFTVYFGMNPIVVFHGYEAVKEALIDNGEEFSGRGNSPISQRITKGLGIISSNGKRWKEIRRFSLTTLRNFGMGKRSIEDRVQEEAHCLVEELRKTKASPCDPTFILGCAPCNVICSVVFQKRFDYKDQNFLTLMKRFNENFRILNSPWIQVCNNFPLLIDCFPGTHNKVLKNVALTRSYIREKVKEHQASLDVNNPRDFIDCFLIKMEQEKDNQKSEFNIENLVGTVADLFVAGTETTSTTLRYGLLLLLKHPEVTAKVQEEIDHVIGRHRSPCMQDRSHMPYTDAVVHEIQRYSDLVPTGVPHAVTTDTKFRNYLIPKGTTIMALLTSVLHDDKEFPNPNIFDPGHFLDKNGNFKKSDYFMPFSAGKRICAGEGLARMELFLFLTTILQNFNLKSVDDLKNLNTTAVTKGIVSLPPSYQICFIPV

[3] = cited from earlier work
CYP2C8 [4] = settings: read-out: CYP2C8 Ki; microsomal protein concentration 0.25 mg/mL; cited from earlier work
[5] = cited from earlier work; remark: listed apart in the source
[6] = cited from earlier work; remark: listed apart in the source
[7] = for AUC(0-inf): AUC0–∞; for tmax: median (range)
[8] = after 300 mg clopidogrel oral, day 1, median (range)
[9] = both, human, plasma, po, 300 mg
[10] = after 60 mg prasugrel oral, day 1, median (range)

SMILES: O=C(O)[C@H](c1ccccc1Cl)N1CCc2sccc2C1 [Clopidogrel carboxylic acid]
AUC0-13h [1, 8]: 38,500 (22,000–53,400) ng·h/mL | Cmax [1, 8]: 11,500 (7,410–19,700) ng/mL | tmax [1, 8]: 0.92 (0.92–1.5) h | t½ [1, 8]: 7.3 (5.8–9.2) h

SMILES: COC(=O)[C@H](c1ccccc1Cl)N1CCc2sccc2C1 [Clopidogrel]
AUC(0-t) [1, 9]: 13.2 ng·h/mL | Cmax [1, 9]: 3.53 ng/mL | half-life [1, 9]: 4.8 h | tmax [1, 9]: 1.5 h | CYP2C8 inhibition in humans (conclusion) (CYP2C8 [2]): at least a moderate inhibitor of CYP2C8; also recorded: weaker CYP2C8 inhibitor than gemfibrozil | clinically relevant inhibition of CYP3A4 or OATP1B1 ([3]; pitavastatin and simvastatin as substrates): not a clinically relevant inhibitor of CYP3A4 or OATP1B1

SMILES: CC(C)(O)c1ccccc1CC[C@@H](SCC1(CC(=O)O)CC1)c1cccc(/C=C/c2ccc3ccc(Cl)cc3n2)c1 [Montelukast]
Ki (CYP2C8 [4]): […] | oral bioavailability [5]: 60–70% | bound to plasma proteins [6]: about 99.8% | AUC(0-inf) ([7]; both, human, plasma, oral, 10 mg, placebo phase, geometric mean (geometric CV)): 3020 ng·h/mL | tmax ([7]; both, human, plasma, oral, 10 mg, placebo phase): 3.5 h | AUC(0-inf) ([7]; both, human, plasma, oral, clopidogrel phase, geometric mean (geometric CV)): 5990 ng·h/mL | AUC(0-inf) ([7]; both, human, plasma, oral, prasugrel phase, geometric mean (geometric CV)): 2800 ng·h/mL | tmax ([7]; both, human, plasma, oral, clopidogrel phase): 4.5 h | tmax ([7]; both, human, plasma, oral, prasugrel phase): 3 h | half-life ([7]; both, human, plasma, oral, t½, clopidogrel phase, geometric mean (geometric CV)): 8.2 h | t½ ([7]; placebo phase, geometric mean (geometric CV)): 4.51 (18) h | prolongation in t½ ([7]; prasugrel phase vs placebo): 15% | t½ prolongation by prasugrel ([7]; prasugrel phase vs placebo): 1.15 fold | t½ ([7]; prasugrel phase, geometric mean (geometric CV)): 5.16 (20) h | AUC increase by clarithromycin [3]: 2.4 fold | CYP2C8 inhibition in humans [3]: not a significant inhibitor of CYP2C8 | decrease in exposure by fluconazole [3]: 30–40%

SMILES: CCc1ccc(CCOc2ccc(CC3SC(=O)NC3=O)cc2)nc1 (centres unmarked) [Pioglitazone]
AUC increase by gemfibrozil ([3]; previous studies): about 3 fold | AUC increase by clopidogrel ([3]; previously reported): 2.0–2.1 fold

SMILES: O=C(O)/C=C1/CN(C(C(=O)C2CC2)c2ccccc2F)CCC1S (centres unmarked) [Prasugrel active metabolite (R‐138727)]
AUC0-13h [1, 10]: 495 (249–1090) ng·h/mL | Cmax [1, 10]: 428 (210–865) ng/mL | tmax [1, 10]: 0.92 (0.92–0.92) h | t½ [1, 10]: 3.9 (3.2–5.5) h

SMILES: CC(=O)Oc1cc2c(s1)CCN(C(C(=O)C1CC1)c1ccccc1F)C2 (centres unmarked) [Prasugrel]
CYP2C8 inhibition in humans (conclusion) (CYP2C8 [2]): not a clinically relevant CYP2C8 inhibitor; also recorded: not a significant inhibitor of CYP2C8

Further lines, with some results ahead:

AUC0-13h [1, 8]: 32.0 (17.0–101) ng·h/mL | Cmax [1, 8]: 23.4 (12.6–80.1) ng/mL | tmax [1, 8]: 0.92 (0.92–1.5) h | t½ [1, 8]: 3.4 (0.84–4.8) h
SMILES: COC(=O)[C@H](c1ccccc1Cl)N1CC[C@@H](S)/C(=C\C(=O)O)C1 [Clopidogrel active metabolite]

AUC0-13h [1, 8]: 16,200 (7,030–34,200) ng·h/mL | Cmax [1, 8]: 3,290 (1,470–9,680) ng/mL | tmax [1, 8]: 1.5 (0.92–3.0) h | t½ [1, 8]: 4.6 (3.9–6.6) h
SMILES: O=C(O)[C@H]1O[C@@H](OC(=O)[C@H](c2ccccc2Cl)N2CCc3sccc3C2)[C@H](O)[C@@H](O)[C@@H]1O [Clopidogrel acyl‐β‐D‐glucuronide]
Ki (OATP1B1): 5450 nM

AUC0-13h [1, 10]: 495 (247–1140) ng·h/mL | Cmax [1, 10]: 240 (105–692) ng/mL | tmax [1, 10]: 0.92 (0.92–1.5) h | t½ [1, 10]: 7.1 (6.0–9.2) h
SMILES: O=C1C=C2CN(C(C(=O)C3CC3)c3ccccc3F)CCC2S1 (centres unmarked) [Prasugrel inactive metabolite (R‐95913)]
